One assay deals with HeLa cells. Briefly: MTS cell proliferation and/or cytotoxicity assay. It counts as cell-based, Human. The conditions noted are these: Homo sapiens, HeLa, 72 h, concentration at which 50% of antiproliferative cell response is seen; 3 days incubation; read-out: MTS Data Hella. As for the experimental part:
Cell culture. Human cervical epithelial cells (HeLa cells) were obtained from American Type Culture Collection (Manassas, Va.). Cells were grown in Eagle's minimum essential medium (MEM, Hyclone, Utah) supplemented with 2 mM Glutamine, 0.1 mM nonessential amino acid, 1 mM Na Pyruvate, 1.5 g/L NaHCO3, 50 mg/L gentamicin, and 10% fetal bovine serum (Hyclone, USA) in a humidified atmosphere of 5% CO2 at 37° C.
MTS assays. Antiproliferative effects of the compounds were tested by the CellTiter 96 AQueous assay (Promega, WI), which is a calorimetric assay for determining the number of viable cells. (See, e.g., Wang, L., et al., Methods Cell Sci (1996) 18:249-255). In one example, cells (4,500 cells/well) were seeded on 96 well flat bottom plates (Corning, N.Y.) in 100 μl of culture medium without any anticancer drug on day 0, and the culture medium was exchanged for that //contained anticancer drugs at various concentrations on day 1. After incubation for 3 days under normal growth conditions (on day 4), the monolayers were washed once in PBS, and the medium was switched to 100 μl of PBS in each of the 96 well plate. After mixing MTS and PMS at the ratio of 20:1, 20 μl of MTS/PMS solution was added to each of the 96 well plate and incubated for 4 hours in a humidified atmosphere of 5% CO2 at 37° C. The absorbance was read at 490 nm using FLUOstar Galaxy 96 well plate reader (BMG Labtechnologies, Germany). μM concentrations (MTS data) reported in Table 1 are concentrations at which 50% of antiproliferative cell response is seen.
In the case of `O=C(CCN1CCCC1)N[C@@H]1CCN(c2c(F)cc3c(=O)c(C(=O)NCCN4CCOCC4)cn4c3c2Oc2cc3c(cc2-4)oc2ccccc23)C1` [compound 504], the IC50 came out at 3400 nM.

`CN(C)CCCCNc1c(F)cc2c(=O)c(C(=O)NCCN3CCCC3)cn3c2c1Oc1cc2c(cc1-3)oc1ccccc12` [compound 369]: the IC50 is 3500 nM.

For `CN(C)CCCCNc1c(F)cc2c(=O)c(C(=O)NCCC3CCCN3C)cn3c2c1Oc1c-3ccc2ccccc12` (stereo not shown) [compound 496], the IC50 came to 4000 nM.

For `CN1CCCC1CCNC(=O)c1cn2c3cc4oc5cc([N+](=O)[O-])ccc5[nH]c4cc3oc3c(NCCN4CCCC4)c(F)cc(c1=O)c32` (stereo not shown) [compound 570], the IC50 turned out to be 6800 nM.

With `CCN(CC)CCCC(C)NC(=O)c1cn2c3c(c(N4CCC(c5cnccn5)C4)ccc3c1=O)Oc1ccccc1-2` (stereo not shown) [compound 29], the IC50 came to 2000 nM.

Regarding `CN1CCN(CCCNC(=O)c2cn3c4c(c(N5CCC(NC(=O)OC(C)(C)C)C5)c(F)cc4c2=O)Oc2cc4c(cc2-3)oc2ccccc24)CC1` (stereo not shown) [compound 383], the IC50 stood at 370 nM.

For the molecule `NC1CCN(c2c(F)cc3c(=O)c(C(=O)NCCCn4ccnc4)cn4c3c2Oc2cc3c(cc2-4)oc2ccccc23)C1` (stereo not shown) [compound 521], the IC50 is 1700 nM.

On to `NCCCNC(=O)c1cn2c3c(c(N4CC[C@@H](N)C4)c(F)cc3c1=O)Oc1cc3ccccc3cc1-2` [compound 485], for which the IC50 is 500 nM.

As for `CN1CCN(CCCNC(=O)c2cn3c4c(c(N5CC[C@@H](N)C5)c(F)cc4c2=O)Oc2cc4ccccc4cc2-3)CC1` [compound 538], the IC50 was determined as 280 nM.

On to `CC(=O)N[C@@H]1CCN(c2c(F)cc3c(=O)c(C(=O)NCCCCN(C)C)cn4c3c2Oc2cc3c(cc2-4)oc2ccccc23)C1` [compound 374], for which the IC50 worked out at 3300 nM.

Still in this assay, the particulars now being: Homo sapiens, HeLa, HeLa cells, MTS; read-out: Hela MTS.
For `NC1CCN(c2c(F)cc3c(=O)c(C(=O)NCCN4CCCC4)cn4c3c2Oc2cc(Cl)ccc2-4)C1` (stereo not shown) [compound 1800], the IC50 was 180 nM.

In the case of `CN1CCCC1CCNC(=O)c1cn2c3c(c(NCC(O)c4ccccc4)c(F)cc3c1=O)Oc1cc3ccccc3cc1-2` (stereo not shown) [compound 1676], the IC50 stood at 190 nM.

Regarding `CN(C)CCCCNC(=O)c1cn2c3c(c(N4CC5CCCNC5C4)c(F)cc3c1=O)Oc1cc3ccccc3cc1-2` (stereo not shown) [compound 1639], the IC50 amounted to 100 nM.

On to `CN1CCCC1CCNC(=O)c1cn2c3c(c(N4CCC(N)C4)c(F)cc3c1=O)Nc1cc3ccccc3cc1-2` (stereo not shown) [compound 1645], for which the IC50 was 3300 nM.

Consider `N=C(N)NCC1CCCC(CNC(=O)c2cn3c4c(c(N5CCC(N)C5)c(F)cc4c2=O)Oc2cc4ccccc4cc2-3)C1` (stereo not shown) [compound 1649], for which the IC50 came to 2200 nM.

With `O=C(NCCN1CCCC1)c1cn2c3cc4c(cc3oc3c(N5CC6CCCNC6C5)c(F)cc(c1=O)c32)c(=O)c1ccccc14` (stereo not shown) [compound 1726], the IC50 worked out at 2600 nM.

As to `CN(C)CCCCNC(=O)c1cn2c3c(c(N4CCC(N)C4)ccc3c1=O)Oc1cc3ccccc3cc1-2` (stereo not shown) [compound 1559], the IC50 amounted to 240 nM.

The target in another assay is c-Myc template DNA (c-myc quadruplex). Briefly: Quadruplex binding / stop assay (Taq polymerase arrest, capillary electrophoresis). The conditions noted are these: read-out: S DATA; Table 1D, stop assay data.
In the case of `NC1CCN(c2c(F)cc3c(=O)c(C(=O)NCCN4CCCC4)cn4c3c2Oc2cc(Cl)ccc2-4)C1` (stereo not shown) [compound 1800], the IC50 stood at 2.6 µM.

With `CN1CCCC1CCNC(=O)c1cn2c3c(c(NCC(O)c4ccccc4)c(F)cc3c1=O)Oc1cc3ccccc3cc1-2` (stereo not shown) [compound 1676], the IC50 is 0.75 µM.

For the molecule `CN(C)CCCCNC(=O)c1cn2c3c(c(N4CC5CCCNC5C4)c(F)cc3c1=O)Oc1cc3ccccc3cc1-2` (stereo not shown) [compound 1639], the IC50 is 0.375 µM.

For `CN1CCCC1CCNC(=O)c1cn2c3c(c(N4CCC(N)C4)c(F)cc3c1=O)Nc1cc3ccccc3cc1-2` (stereo not shown) [compound 1645], the IC50 worked out at 0.62 µM.

Turning to `N=C(N)NCC1CCCC(CNC(=O)c2cn3c4c(c(N5CCC(N)C5)c(F)cc4c2=O)Oc2cc4ccccc4cc2-3)C1` (stereo not shown) [compound 1649], the IC50 is 0.37 µM.

With `O=C(NCCN1CCCC1)c1cn2c3cc4c(cc3oc3c(N5CC6CCCNC6C5)c(F)cc(c1=O)c32)c(=O)c1ccccc14` (stereo not shown) [compound 1726], the IC50 was determined as 0.125 µM.

With `CN(C)CCCCNC(=O)c1cn2c3c(c(N4CCC(N)C4)ccc3c1=O)Oc1cc3ccccc3cc1-2` (stereo not shown) [compound 1559], the IC50 was 0.18 µM.

The assay is the same for the next values; noted with them: read-out: Stop Data c-Myc μM; concentration at which 50% of the DNA was arrested (arrested:full-length 1:1).
`O=C(CCN1CCCC1)N[C@@H]1CCN(c2c(F)cc3c(=O)c(C(=O)NCCN4CCOCC4)cn4c3c2Oc2cc3c(cc2-4)oc2ccccc23)C1` [compound 504]: the IC50 amounted to 0.375 µM.

Take `CN(C)CCCCNc1c(F)cc2c(=O)c(C(=O)NCCN3CCCC3)cn3c2c1Oc1cc2c(cc1-3)oc1ccccc12` [compound 369]: the IC50 was found to be 0.75 µM.

In the case of `CN(C)CCCCNc1c(F)cc2c(=O)c(C(=O)NCCC3CCCN3C)cn3c2c1Oc1c-3ccc2ccccc12` (stereo not shown) [compound 496], the IC50 came to 0.41 µM.

Take `CN1CCCC1CCNC(=O)c1cn2c3cc4oc5cc([N+](=O)[O-])ccc5[nH]c4cc3oc3c(NCCN4CCCC4)c(F)cc(c1=O)c32` (stereo not shown) [compound 570]: the IC50 worked out at 0.18 µM.

Turning to `CCN(CC)CCCC(C)NC(=O)c1cn2c3c(c(N4CCC(c5cnccn5)C4)ccc3c1=O)Oc1ccccc1-2` (stereo not shown) [compound 29], the IC50 is 3 µM.

Take `CN1CCN(CCCNC(=O)c2cn3c4c(c(N5CCC(NC(=O)OC(C)(C)C)C5)c(F)cc4c2=O)Oc2cc4c(cc2-3)oc2ccccc24)CC1` (stereo not shown) [compound 383]: the IC50 was 0.75 µM.

With `NC1CCN(c2c(F)cc3c(=O)c(C(=O)NCCCn4ccnc4)cn4c3c2Oc2cc3c(cc2-4)oc2ccccc23)C1` (stereo not shown) [compound 521], the IC50 worked out at 0.375 µM.

Take `NCCCNC(=O)c1cn2c3c(c(N4CC[C@@H](N)C4)c(F)cc3c1=O)Oc1cc3ccccc3cc1-2` [compound 485]: the IC50 came to 0.5 µM.

With `CN1CCN(CCCNC(=O)c2cn3c4c(c(N5CC[C@@H](N)C5)c(F)cc4c2=O)Oc2cc4ccccc4cc2-3)CC1` [compound 538], the IC50 was determined as 0.375 µM.

`CC(=O)N[C@@H]1CCN(c2c(F)cc3c(=O)c(C(=O)NCCCCN(C)C)cn4c3c2Oc2cc3c(cc2-4)oc2ccccc23)C1` [compound 374]: the IC50 was 0.75 µM.

(Values after patent publication US7507727B2, “Substituted quinobenzoxazine analogs and methods of using thereof” (Cylene Pharmaceuticals, Inc., priority 2003, dated 2009).)
